Results taken from the NIST ThermoML archive (doi:10.1007/s10765-006-0033-6).

Assay: compressibility factor (dimensionless); xn = mol fraction of the nth substance listed
Settings: Gas, Other PVT measurement

[N-]=[N+]=O [nitrous oxide] + FCF
Settings	compressibility factor
303.23 K, 131 kPa, x1 = 0.2958	0.9882
303.23 K, 133.7 kPa, x1 = 0.3826	0.9887
303.23 K, 194.9 kPa, x1 = 0.2958	0.9827
303.23 K, 199.1 kPa, x1 = 0.3826	0.9838
303.23 K, 213.1 kPa, x1 = 0.7326	0.9893
303.23 K, 235.1 kPa, x1 = 0.6589	0.9847
303.23 K, 289.2 kPa, x1 = 0.2958	0.9746
303.23 K, 295.5 kPa, x1 = 0.3826	0.9761
303.23 K, 316.4 kPa, x1 = 0.7326	0.9819
303.23 K, 349.2 kPa, x1 = 0.6589	0.9776
303.23 K, 356.8 kPa, x1 = 0.448	0.9708
303.23 K, 427.1 kPa, x1 = 0.2958	0.9622
303.23 K, 436.8 kPa, x1 = 0.3826	0.9645
303.23 K, 468.8 kPa, x1 = 0.7326	0.9723
303.23 K, 516.7 kPa, x1 = 0.6589	0.9669
303.23 K, 526.5 kPa, x1 = 0.448	0.9574
303.23 K, 626.7 kPa, x1 = 0.2958	0.9437
303.23 K, 641.7 kPa, x1 = 0.3826	0.947
303.23 K, 691.2 kPa, x1 = 0.7326	0.9582
303.23 K, 760.2 kPa, x1 = 0.6589	0.9509
303.23 K, 771.2 kPa, x1 = 0.448	0.9375
303.23 K, 910.7 kPa, x1 = 0.2958	0.9166
303.23 K, 933.9 kPa, x1 = 0.3826	0.9213
303.23 K, 1012.1 kPa, x1 = 0.7326	0.9378
303.23 K, 1108.8 kPa, x1 = 0.6589	0.927
303.23 K, 1117.6 kPa, x1 = 0.448	0.9081
303.23 K, 1303.4 kPa, x1 = 0.2958	0.8768
303.23 K, 1340.2 kPa, x1 = 0.3826	0.8837
303.23 K, 1465.6 kPa, x1 = 0.7326	0.9077
303.23 K, 1593.4 kPa, x1 = 0.448	0.8653
303.23 K, 1596.2 kPa, x1 = 0.6589	0.892
303.23 K, 1822 kPa, x1 = 0.2958	0.8193
303.23 K, 1881.5 kPa, x1 = 0.3826	0.8292
303.23 K, 2086.1 kPa, x1 = 0.7326	0.8636
303.23 K, 2214.2 kPa, x1 = 0.448	0.8037
303.23 K, 2252 kPa, x1 = 0.6589	0.8412
303.23 K, 2454.7 kPa, x1 = 0.2958	0.7378
303.23 K, 2551.4 kPa, x1 = 0.3826	0.7516
303.23 K, 2892.7 kPa, x1 = 0.7326	0.8004
303.23 K, 2954.5 kPa, x1 = 0.448	0.7169
303.23 K, 3079.5 kPa, x1 = 0.6589	0.7688
303.23 K, 3848.9 kPa, x1 = 0.7326	0.7119
303.23 K, 4005.3 kPa, x1 = 0.6589	0.6684
323.44 K, 159 kPa, x1 = 0.5714	0.9902
323.44 K, 237 kPa, x1 = 0.5714	0.9864
323.44 K, 254.6 kPa, x1 = 0.745	0.9868
323.44 K, 352.4 kPa, x1 = 0.5714	0.9806
323.44 K, 378.8 kPa, x1 = 0.745	0.9812
323.44 K, 522.4 kPa, x1 = 0.5714	0.9714
323.44 K, 561.8 kPa, x1 = 0.745	0.9727
323.44 K, 770.4 kPa, x1 = 0.5714	0.9577
323.44 K, 829.3 kPa, x1 = 0.745	0.9598
323.44 K, 1128 kPa, x1 = 0.5714	0.9372
323.44 K, 1215.8 kPa, x1 = 0.745	0.9406
323.44 K, 1633.3 kPa, x1 = 0.5714	0.9071
323.44 K, 1764.2 kPa, x1 = 0.745	0.9123
323.44 K, 2325.6 kPa, x1 = 0.5714	0.8633
323.44 K, 2519.5 kPa, x1 = 0.745	0.8708
323.44 K, 3228.5 kPa, x1 = 0.5714	0.8011
323.44 K, 3513.7 kPa, x1 = 0.745	0.8117
323.44 K, 4726.6 kPa, x1 = 0.745	0.7299
323.45 K, 119.4 kPa, x1 = 0.4108	0.9909
323.45 K, 128.6 kPa, x1 = 0.3236	0.9894
323.45 K, 141.9 kPa, x1 = 0.2465	0.9883
323.45 K, 178 kPa, x1 = 0.4108	0.9879
323.45 K, 191.7 kPa, x1 = 0.3236	0.986
323.45 K, 211.5 kPa, x1 = 0.2465	0.984
323.45 K, 265 kPa, x1 = 0.4108	0.9831
323.45 K, 285.1 kPa, x1 = 0.3236	0.9802
323.45 K, 314.1 kPa, x1 = 0.2465	0.9771
323.45 K, 393.4 kPa, x1 = 0.4108	0.9754
323.45 K, 422.8 kPa, x1 = 0.3236	0.9714
323.45 K, 464.8 kPa, x1 = 0.2465	0.9664
323.45 K, 581.5 kPa, x1 = 0.4108	0.9636
323.45 K, 623.6 kPa, x1 = 0.3236	0.9578
323.45 K, 683.5 kPa, x1 = 0.2465	0.9499
323.45 K, 854.1 kPa, x1 = 0.4108	0.946
323.45 K, 912.9 kPa, x1 = 0.3236	0.9372
323.45 K, 996.3 kPa, x1 = 0.2465	0.9254
323.45 K, 1242.3 kPa, x1 = 0.4108	0.9198
323.45 K, 1321.6 kPa, x1 = 0.3236	0.9069
323.45 K, 1433.4 kPa, x1 = 0.2465	0.8899
323.45 K, 1781.4 kPa, x1 = 0.4108	0.8816
323.45 K, 1881.4 kPa, x1 = 0.3236	0.8629
323.45 K, 2021.2 kPa, x1 = 0.2465	0.8388
323.45 K, 2499.7 kPa, x1 = 0.4108	0.8269
323.45 K, 2610.3 kPa, x1 = 0.3236	0.8003
343.77 K, 139.1 kPa, x1 = 0.2266	0.9898
